Data published in patent publication US10562909B2, “Fused quadracyclic compounds, compositions and uses thereof” (Tabomedex Biosciences, LLC, priority 2016, dated 2020).

Molecular target: MAPKAPK2 (Homo sapiens, UniProt P49137)
Experiment: MK2 Enzymatic Assay
Format: biochemical
Details: 0.5 nM MAPKAPK2, 3 μM ATP, 2 μM Ser/Thr4 peptide, 23° C., values given as concentration bins
Method in brief: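 MAPKAPK2 (2× stock 1 nM) and peptide substrate (2× 4 μM) were preincubated 20 min, then started with ATP (2× stock 6 μM) for 120 min. After 120 min development, coumarin/fluorescein emission ratio gave percent phosphorylation against 0% and 100% phosphopeptide controls.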

MAPKAPK2, sequence (P49137 whole entry, species assumed): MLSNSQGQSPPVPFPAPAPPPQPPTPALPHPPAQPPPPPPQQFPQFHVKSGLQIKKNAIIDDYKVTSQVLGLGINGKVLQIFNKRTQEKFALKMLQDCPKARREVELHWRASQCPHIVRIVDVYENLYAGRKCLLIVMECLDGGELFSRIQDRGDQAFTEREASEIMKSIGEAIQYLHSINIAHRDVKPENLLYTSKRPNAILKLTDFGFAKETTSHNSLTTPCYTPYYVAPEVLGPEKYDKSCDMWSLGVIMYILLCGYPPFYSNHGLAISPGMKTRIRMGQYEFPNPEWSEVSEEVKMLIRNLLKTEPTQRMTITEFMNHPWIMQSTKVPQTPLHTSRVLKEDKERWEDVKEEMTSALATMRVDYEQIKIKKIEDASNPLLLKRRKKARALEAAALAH

Compound	IC50
CN(C)C[C@@H]1CN(c2ccc3c(c2)Cn2cc(-c4ccc(F)cc4)cc2-c2ncnn2-3)C[C@H]1O [Compound 422, (3S,4R)-4-((dimethylamino)methyl)-1-(12-(4-fluorophenyl)-9H-benzo[e]pyrrolo[1,2-a][1,2,4]triazolo[5,1-c][1,4]diazepin-7-yl)pyrrolidin-3-ol]	< 50 nM
O[C@@H]1CN(c2ccc3c(c2)Cn2cc(-c4ccc(F)cc4)cc2-c2nccn2-3)C[C@H]1CN1CCCC1 [Compound 471, (3S,4R)-1-(12-(4-fluorophenyl)-9H-benzo[e]imidazo[2,1-c]pyrrolo[1,2-a][1,4]diazepin-7-yl)-4-(pyrrolidin-1-ylmethyl)pyrrolidin-3-ol]	< 50 nM
CN1CC2(CCN(c3cc4c(cn3)-n3ccnc3-c3cc(-c5ccc(C#N)cc5)cn3C4)C2)C1 [Compound 322, 4-(7-(2-methyl-2,6-diazaspiro[3.4]octan-6-yl)-9H-imidazo[2,1-c]pyrido[3,4-e]pyrrolo[1,2-a] [1,4]diazepin-12-yl)benzonitrile]	100 to 200 nM
CN(C)C[C@H]1CN(c2ccc3c(c2)Cn2cc(-c4ccc(F)cc4)cc2-c2ncnn2-3)C[C@H]1F (relative stereo) [Compound 502, 1-(cis-4-fluoro-1-(12-(4-fluorophenyl)-9H-benzo[e]pyrrolo[1,2-a][1,2,4]triazolo[5,1-c][1,4]diazepin-7-yl)pyrrolidin-3-yl)-N,N-dimethylmethanamine]	< 50 nM
N#Cc1ccc(-c2cc3n(c2)Cc2cc(N4CCC5(CNC5)C4)ccc2-n2ncnc2-3)cc1 [Compound 256, 4-(7-(2,6-diazaspiro[3.4]octan-6-yl)-9H-benzo[e]pyrrolo[1,2-a][1,2,4]triazolo[5,1-c][1,4]diazepin-12-yl)benzonitrile]	< 50 nM
N#Cc1ccc(-c2cc3n(c2)Cc2cc(N4CC5(CCNCC5)C4)ccc2-n2nnnc2-3)cc1 [Compound 245, 4-(7-(2,7-diazaspiro[3.5]nonan-2-yl)-9H-benzo[e]pyrrolo[1,2-a]tetrazolo[5,1-c][1,4]diazepin-12-yl)benzonitrile]	100 to 200 nM
C[C@H](CO)N1CC2(CCN(c3ccc4c(c3)Cn3cc(-c5ccc(F)cc5)cc3-c3nccn3-4)C2)C1 [Compound 370, (R)-2-(6-(12-(4-fluorophenyl)-9H-benzo[e]imidazo[2,1-c]pyrrolo[1,2-a][1,4]diazepin-7-yl)-2,6-diazaspiro[3.4]octan-2-yl)propan-1-ol]	< 50 nM
CN(C)C[C@H]1CN(c2ccc3c(c2)Cn2cc(-c4ccc(F)cc4)cc2-c2ncnn2-3)C[C@@H]1O [Compound 421, (3R,4S)-4-((dimethylamino)methyl)-1-(12-(4-fluorophenyl)-9H-benzo[e]pyrrolo[1,2-a][1,2,4]triazolo[5,1-c][1,4]diazepin-7-yl)pyrrolidin-3-ol]	< 50 nM
CC(C)(CO)NC[C@@H]1CCN(c2ccc3c(c2)Cn2cc(-c4ccc(F)cc4)cc2-c2ncnn2-3)C1 [Compound 425, (S)-2-(((1-(12-(4-fluorophenyl)-9H-benzo[e]pyrrolo[1,2-a][1,2,4]triazolo[5,1-c][1,4]diazepin-7-yl)pyrrolidin-3-yl)methyl)amino)-2-methylpropan-1-ol]	50 to 100 nM
CNCC1CN(c2cc3c(cn2)-n2cnnc2-c2cc(-c4ccc(C#N)cc4)cn2C3)C1 [Compound 315, 4-(7-(3-((methylamino)methyl)azetidin-1-yl)-9H-pyrido[3,4-e]pyrrolo[1,2-a][1,2,4]triazolo[3,4-c][1,4]diazepin-12-yl)benzonitrile]	100 to 200 nM
N[C@H]1CN(c2ccc3c(c2)Cn2cc(-c4ccc(F)cc4)cc2-c2nccn2-3)C[C@@H]1CO (relative stereo) [Compound 489, ((trans)-4-amino-1-(12-(4-fluorophenyl)-9H-benzo[e]imidazo[2,1-c]pyrrolo[1,2-a][1,4]diazepin-7-yl)pyrrolidin-3-yl)methanol]	< 50 nM
CN(C)C[C@@H]1CN(c2ccc3c(c2)Cn2cc(-c4ccc(F)cc4)cc2-c2cnnn2-3)C[C@H]1O [Compound 511, (3S,4R)-4-((dimethylamino)methyl)-1-(5-(4-fluorophenyl)-8H-benzo[e]pyrrolo[1,2-a][1,2,3]triazolo[5,1-c][1,4]diazepin-10-yl)pyrrolidin-3-ol]	< 50 nM
CN(C)[C@H]1CCN(c2ccc3c(c2)Cn2cc(-c4ccc(F)cc4F)cc2-c2nncn2-3)C1 [Compound 449, (S)-1-(12-(2,4-difluorophenyl)-9H-benzo[e]pyrrolo[1,2-a][1,2,4]triazolo[3,4-c][1,4]diazepin-7-yl)-N,N-dimethylpyrrolidin-3-amine]	100 to 200 nM
CN1CC2(CCN(c3ccc4c(c3)Cn3cc(-c5ccc(F)cc5)cc3-c3nnnn3-4)C2)C1 [Compound 392, 12-(4-fluorophenyl)-7-(2-methyl-2,6-diazaspiro[3.4]octan-6-yl)-9H-benzo[e]pyrrolo[1,2-a] tetrazolo[5,1-c][1,4]diazepine]	< 50 nM
OC1CN(c2ccc3c(c2)Cn2cc(-c4ccc(F)cc4)cc2-c2nccn2-3)CC1CN1CCC1 (single isomer, unassigned) [Compound 468]	< 50 nM
CNC[C@H]1CN(c2ccc3c(c2)Cn2cc(-c4ccc(F)cc4)cc2-c2ncnn2-3)C[C@H]1F (relative stereo) [Compound 501, 1-(cis-4-fluoro-1-(12-(4-fluorophenyl)-9H-benzo[e]pyrrolo[1,2-a][1,2,4]triazolo[5,1-c][1,4]diazepin-7-yl)pyrrolidin-3-yl)-N-methylmethanamine]	< 50 nM
CN(C)C[C@@H]1CN(c2ccc3c(n2)Cn2cc(-c4ccc(C#N)cc4)cc2-c2nccn2-3)C[C@H]1O [Compound 307, 4-(7-((3R,4S)-3-((dimethylamino)methyl)-4-hydroxypyrrolidin-1-yl)-9H-imidazo[2,1-c]pyrido[3,2-e]pyrrolo[1,2-a][1,4]diazepin-12-yl)benzonitrile]	< 50 nM
N#Cc1ccc(-c2cc3n(c2)Cc2cc(N4CCC5(CNC5)C4)ncc2-n2ccnc2-3)cc1 [Compound 323, 4-(7-(2,6-diazaspiro[3.4]octan-6-yl)-9H-imidazo[2,1-c]pyrido[3,4-e]pyrrolo[1,2-a][1,4]diazepin-12-yl)benzonitrile]	50 to 100 nM
CN(C)C[C@@H]1CN(c2ccc3c(n2)Cn2cc(-c4ccc(C#N)cc4)cc2-c2nccn2-3)C[C@@H]1O [Compound 299, 4-(7-((3R,4R)-3-((dimethylamino)methyl)-4-hydroxypyrrolidin-1-yl)-9H-imidazo[2,1-c]pyrido[3,2-e]pyrrolo[1,2-a][1,4]diazepin-12-yl)benzonitrile]	< 50 nM
CNC[C@@H]1CCN(c2ccc3c(c2)Cn2c(cc(-c4ccc(C#N)cc4)c2Cl)-c2nncn2-3)C1 [Compound 173, (S)-4-(11-chloro-7-(3-((methylamino)methyl)pyrrolidin-1-yl)-9H-benzo[e]pyrrolo[1,2-a][1,2,4]triazolo[3,4-c][1,4]diazepin-12-yl)benzonitrile]	< 50 nM
CN(C)[C@@H]1CCN(c2cc3c(cn2)-n2cnnc2-c2cc(-c4ccc(C#N)cc4)cn2C3)C1 [Compound 319, (R)-4-(7-(3-(dimethylamino)pyrrolidin-1-yl)-9H-pyrido[3,4-e]pyrrolo[1,2-a][1,2,4]triazolo[3,4-c][1,4]diazepin-12-yl)benzonitrile]	50 to 100 nM
CN(C)C1CCN(c2ccc3c(c2)Cn2cc(-c4ccc(F)cc4)cc2-c2nccn2-3)CC1 [Compound 381, 1-(12-(4-fluorophenyl)-9H-benzo[e]imidazo[2,1-c]pyrrolo[1,2-a][1,4]diazepin-7-yl)-N,N-dimethylpiperidin-4-amine]	< 50 nM
C[C@H](CO)NC[C@H]1CCN(c2ccc3c(c2)Cn2cc(-c4ccc(C#N)cc4)cc2-c2nncn2-3)C1 [Compound 85, 4-(7-((R)-3-((((R)-1-hydroxypropan-2-yl)amino)methyl)pyrrolidin-1-yl)-9H-benzo[e]pyrrolo[1,2-a][1,2,4]triazolo[3,4-c][1,4]diazepin-12-yl)benzonitrile]	< 50 nM
CN(C)C1CCN(c2ccc3c(c2)Cn2cc(-c4ccc(F)cc4)cc2-c2ncnn2-3)CC1 [Compound 428, 1-(12-(4-fluorophenyl)-9H-benzo[e]pyrrolo[1,2-a][1,2,4]triazolo[5,1-c][1,4]diazepin-7-yl)-N,N-dimethylpiperidin-4-amine]	50 to 100 nM
CN(C)C[C@H]1CN(c2ccc3c(c2)Cn2cc(-c4ccc(F)cc4)cc2-c2ncnn2-3)C[C@H]1F [Compound 498, 1-((3S,4S)-4-fluoro-1-(12-(4-fluorophenyl)-9H-benzo[e]pyrrolo[1,2-a][1,2,4]triazolo[5,1-c][1,4]diazepin-7-yl)pyrrolidin-3-yl)-N,N-dimethylmethanamine]	< 50 nM
CN(C)C[C@@H]1CCN(c2cc3c(cn2)-n2cnnc2-c2cc(-c4ccc(C#N)cc4)cn2C3)C1 [Compound 317, (S)-4-(7-(3-((dimethylamino)methyl)pyrrolidin-1-yl)-9H-pyrido[3,4-e]pyrrolo[1,2-a][1,2,4]triazolo[3,4-c][1,4]diazepin-12-yl)benzonitrile]	100 to 200 nM
CN(C)C[C@@H]1CCN(c2ccc3c(c2)Cn2cc(-c4ccc(F)cc4)cc2-c2nnnn2-3)C1 [Compound 393, (S)-1-(1-(12-(4-fluorophenyl)-9H-benzo[e]pyrrolo[1,2-a]tetrazolo[5,1-c][1,4]diazepin-7-yl)pyrrolidin-3-yl)-N,N-dimethylmethanamine]	< 50 nM
CN(C)CCC1CCN(c2ccc3c(c2)Cn2cc(-c4ccc(F)cc4)cc2-c2nccn2-3)C1 (centres unmarked) [Compound 488, 2-(1-(12-(4-fluorophenyl)-9H-benzo[e]imidazo[2,1-c]pyrrolo[1,2-a][1,4]diazepin-7-yl)pyrrolidin-3-yl)-N,N-dimethylethanamine]	< 50 nM
CN(C)C[C@@H]1CCN(c2ccc3c(c2)Cn2cc(-c4ccc(C#N)cc4)cc2-c2nnnn2-3)C1 [Compound 241, (S)-4-(7-(3-((dimethylamino)methyl)pyrrolidin-1-yl)-9H-benzo[e]pyrrolo[1,2-a]tetrazolo[5,1-c][1,4]diazepin-12-yl)benzonitrile]	< 50 nM
